Reference: patent publication US4894388A, “Glycosidase inhibitors and use thereof” (priority 1988, dated 1990)

Assays:
[1] = system: α-D-mannosidase (multiple forms); experiment: Inhibition of multiple forms of α-D-mannosidase; assay type: biochemical; conditions: human liver
Method: (§1) Post mortem human liver, which had been stored at -20° C. until required was homogenized in deionized water (50%, w/v) in a Potter-Elvehjem homogenizer and then centrifuged at 37,000 g for 30 min in an MSE 18 centrifuge. The resultant supernatant was used as the source of enzymic activities.
(§2) The glycosidase activities in an extract of normal human liver were assayed by using the appropriate fluorigenic 4-methylumbelliferyl glycoside substrate (Koch-Light, Haverhill, Suffolk, U.K.) with a concentration of 0.5 mM at the optimal pH of each enzyme [Burditt et al., Clin. Chim. Acta 140, 201-209 (1980)]. Human liver acidic (lysomal) and neutral (cystosolic) α-D-mannosidases were assayed similarly at their pH-optima, of 4.0 and 6.5, respectively, after separation by affinity chromatography on concanavalin A-Sepharose® (Pharmacia Ltd, Milton Keynes, Bucks, U.K.) [Phillips et al., Biochem. J. 153, 579-587 (1976)]. The residual intermediate (Golgi) α-mannosidase II activity in extracts of fibroblasts from a patient with the lysosomal storage disease, mannosidosis, was assayed at pH 5.75 using the synthetic substrate (Burditt et al, Ibid.). The specificity of the inhibitors was determined by assaying the glycosidases in the presence and absence of a 1 mM solution of each compound. The nature of the inhibition and the value of Ki were determined using the Dixon graphical procedure.

[2] = molecular target: T1, cytosolic (neutral) α-D-mannosidase (Homo sapiens, UniProt Q9NTJ4); experiment: Inhibition of cytosolic (neutral) α-D-mannosidase, fluorigenic 4-methylumbelliferyl glycoside substrate; assay type: biochemical; conditions: for inhibition at 1000 µM: 1 mM inhibitor, 0.5 mM substrate, pH 6.5, mean of 2-4 determinations
T1 construct: Post mortem human liver, which had been stored at -20° C; from tissue; host or cells: post mortem human liver, 37,000 g supernatant; concanavalin A-Sepharose fraction
T1 sequence (Q9NTJ4 1-1040): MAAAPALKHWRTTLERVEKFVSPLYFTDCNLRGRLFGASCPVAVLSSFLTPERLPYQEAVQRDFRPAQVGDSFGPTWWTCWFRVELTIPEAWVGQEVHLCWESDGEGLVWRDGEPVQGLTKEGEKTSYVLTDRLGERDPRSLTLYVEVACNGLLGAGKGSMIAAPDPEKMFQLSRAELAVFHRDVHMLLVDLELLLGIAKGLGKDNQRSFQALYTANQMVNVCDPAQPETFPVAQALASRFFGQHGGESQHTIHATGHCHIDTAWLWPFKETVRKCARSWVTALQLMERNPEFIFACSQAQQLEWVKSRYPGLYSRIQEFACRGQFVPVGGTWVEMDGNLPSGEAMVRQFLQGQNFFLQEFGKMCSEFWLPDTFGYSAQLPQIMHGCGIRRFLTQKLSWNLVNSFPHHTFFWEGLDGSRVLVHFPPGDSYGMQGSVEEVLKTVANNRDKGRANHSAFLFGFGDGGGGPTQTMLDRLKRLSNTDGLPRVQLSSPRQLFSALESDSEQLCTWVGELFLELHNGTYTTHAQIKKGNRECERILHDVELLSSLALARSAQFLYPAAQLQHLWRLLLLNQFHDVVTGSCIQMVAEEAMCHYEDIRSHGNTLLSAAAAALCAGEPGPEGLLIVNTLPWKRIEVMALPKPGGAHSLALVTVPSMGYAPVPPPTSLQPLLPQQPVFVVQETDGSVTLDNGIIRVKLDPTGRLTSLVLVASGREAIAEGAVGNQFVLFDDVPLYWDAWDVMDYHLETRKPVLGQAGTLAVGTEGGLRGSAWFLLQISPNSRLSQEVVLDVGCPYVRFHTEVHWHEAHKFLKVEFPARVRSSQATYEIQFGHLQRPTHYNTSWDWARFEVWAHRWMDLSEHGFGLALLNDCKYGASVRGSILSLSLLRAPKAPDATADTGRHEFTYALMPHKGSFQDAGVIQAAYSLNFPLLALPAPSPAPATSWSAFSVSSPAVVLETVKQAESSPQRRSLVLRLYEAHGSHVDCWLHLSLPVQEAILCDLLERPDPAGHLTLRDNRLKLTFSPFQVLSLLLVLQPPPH
Method: as §1, §2
Enzymic activities were measured in the presence and absence of 1 mM inhibitor. Inhibition (%) was calculated as the fraction of activity lost in the presence of inhibitor. The values are means of two to four independent determinations.

β-D-glucosidase = experiment: Inhibition of β-D-glucosidase; assay type: biochemical, human; conditions: relative to α-D-mannosidase
Method: as §1, §2

| SMILES | inhibition of multiple forms of α-D-mannosidase (in words) [1] | inhibition at 1000 µM [2] | inhibition of neutral cytosolic α-D-mannosidase (in words) ([2]; relative to α-D-mannosidase II) | inhibition of β-D-glucosidase (in words) (β-D-glucosidase) |
| --- | --- | --- | --- | --- |
| OC[C@H](O)[C@@H]1NC[C@@H](O)[C@H]1O [DIA, 1,4-dideoxy-1,4-imino-L-allitol] | moderately strong inhibitor | 61% | to a lesser extent | to a lesser extent |
| OC[C@H](O)[C@H]1[C@H](O)[C@H](O)CN1Cc1ccccc1 [N-benzyl DIA, N-benzyl-1,4-dideoxy-1,4-imino-L-allitol] | – | 4% | – | – |
| CN1C[C@@H](O)[C@@H](O)[C@@H]1[C@@H](O)CO [N-methyl DIA, N-methyl-1,4-dideoxy-1,4-imino-L-allitol] | – | 20% | – | – |
